Results on six molecules are retold here after patent publication US20090042240A1, “RAPID DETECTION OF ANTIMICROBIAL DRUG RESIDUES” (priority 2006, published 2009).

For one data set, the system named is Escherichia coli. The settings on record: additional study 1997; microorganism frozen in skimmed milk, cells washed with saline; cited from earlier work.
The conditions of data set [1]: cited from earlier work; for Lowest official MRL: official Maximum Residue Limit, unit assumed; for MRL: MRL stated by the European Community.
Another data set deals with Escherichia coli strains. The settings on record: Choi et al. 1999, animal tissues; cited from earlier work.
For data set [2], the system named is Escherichia coli ATCC 11303. As to conditions: milk; Escherichia coli ATCC 11303 frozen in 10% glycerol; cited from earlier work.
Data set [3] has as its system Escherichia coli strain ATCC 11303. Briefly: Liquid based microbial screening test for quinolones (Example 2). The data set is classed as cell-based. The settings on record: spiked demineralized water, 100 μl sample, 37° C., 4 hours and 45 minutes, colour change purple to yellow. Here is the method:
In this experiment a liquid based microbial screenings test for the detection of quinolones is described. The quinolone medium used in this experiment is prepared by dissolving the following compounds in 1 liter of demineralized water: • 8.5 gram of Plate Count Broth (PCB) (Difco, cat. no: 275120); • 20 gram of NaCl (Merck, cat. no: 106404); • 0.042 gram of Bromocresol purple (Merck, cat. no: 103025). Escherichia coli strain ATCC 11303 was grown using well-known methods. The test medium was prepared by adding Escherichia coli cells to the quinolone medium to a final concentration of approximately 10^5 cells/ml. The test was prepared by addition of 250 μl of medium containing the test organism in each test ampoule. Spiked samples were prepared by adding different concentrations of the quinolones described in Table 1 to demineralized water. 100 μl of the spiked sample was added to the test ampoule, a negative control (water without quinolones) was included. The tests were incubated at 37° C. for 4 hours and 45 minutes. The tests were read at the time the test incubated with the negative control sample (water without quinolones) changed color from purple to yellow.

For data set [4] the test system is unchanged. As to the kind of experiment: Detection of quinolones in chicken muscle by solvent extraction, then liquid test (Example 7). The data set is classed as cell-based. As to conditions: acetonitrile/acetone extraction. Here is the method:
Escherichia coli strain ATCC 11303 was grown using well-known methods. The test medium was prepared by adding Escherichia coli cells to the quinolone medium to a final concentration of approximately 10^5 cells/ml. The test was prepared by addition of 250 μl of medium containing the test organism in each test ampoule. Spiked samples were prepared by adding different concentrations of the quinolones described in Table 1 to demineralized water. 100 μl of the spiked sample was added to the test ampoule, a negative control (water without quinolones) was included. The tests were incubated at 37° C. for 4 hours and 45 minutes. The tests were read at the time the test incubated with the negative control sample (water without quinolones) changed color from purple to yellow. In this experiment a mixture of acetonitrile/acetone is used to extract antimicrobial compounds out of the sample, further the experiment is executed as described in Example 2. The sample is obtained as follows: • 1. Weigh out 4 g (±0.03) of sample into a 50 ml plastic disposable centrifuge tube; • 2. Add 10 ml acetonitrile/acetone 70:30 (v/v); • 3. […] Homogenize for 30-40 seconds using an Ultra Turrax; • 5. Place in an ultrasonic bath for 5-10 minutes, then vortex mix for 30-40 seconds; • 6. Centrifuge for 10-12 minutes at 4200 G at 4° C.; • 7. […]

For data set [5] the following is noted: agar diffusion, Tsai and Kondo 2001; cited from earlier work.

As for `CN1C[C@@H]2C[C@H]1CN2c1cc2c(cc1F)c(=O)c(C(=O)O)cn2C1CC1` [Danofloxacin], the sensitivity in the data set with Escherichia coli is on record as 8 ppb. Further, the Lowest official MRL in data set [1] is 30 µg/kg.
As to `CCN1CCN(c2cc3c(cc2F)c(=O)c(C(=O)O)cn3C2CC2)CC1` [Enrofloxacin], the detection limit with Escherichia coli strains is 50 ppb. Besides, the figures for the sensitivity (in data set [2]; in the data set on Escherichia coli) were 2 ppb and 6 ppb, respectively.
For `CC1CCc2cc(F)cc3c(=O)c(C(=O)O)cn1c23` (centres unmarked) [Flumequin], the Detection level in data set [3] was 100. In data set [4], this molecule registered a concentration detected of 10 µg/kg. Also, the Lowest official MRL in data set [1] was 400 µg/kg.
`CCn1cc(C(=O)O)c(=O)c2cc3c(cc21)OCO3` [Oxolinic acid] registered a concentration detected in data set [4] of 10 µg/kg. Moreover, the sensitivity in data set [5] was 200 ppb. Further, the Lowest official MRL in data set [1] was 100 µg/kg.
For `O=C(O)c1cn(-c2ccc(F)cc2)c2cc(N3CCNCC3)c(F)cc2c1=O` [Sarafloxacin], the detection limit with Escherichia coli strains is given as 250 ppb. Also, the sensitivity in the data set with Escherichia coli is reported as 15 ppb. Further, in data set [1], the MRL is 100 ppb and the Lowest official MRL was 10 µg/kg.
For the molecule `CN1CCN(c2cc3c(cc2F)c(=O)c(C(=O)O)cn3-c2ccc(F)cc2)CC1` [difloxacin], the detection limit in the data set with Escherichia coli strains was 250 ppb. The MRL in data set [1] is recorded as 10 ppb.
